The record followed here is US11649242B2, “Pyrrolopyrrole compositions as pyruvate kinase (PKR) activators” (FORMA Therapeutics, Inc., priority 2017, dated 2023).

What all share (format): biochemical
The target of one experiment is PKR(G332S) (Homo sapiens, UniProt P30613, G332S). Briefly: Luminescence Assay Protocol (Kinase Glo Plus), PKR(G332S/with FBP). The settings on record: PKRG332S, with FBP; for activation at 1.54 µM: compound 1.54 μM, read-out: C - AC50 LUM KGP FBP % Fold @ 1.54 μM mean; for AC50: gmean, read-out: A - AC50 LUM KGP FBP AC50 μM gmean; for Emax: highest % fold increase at any concentration, read-out: B - AC50 LUM KGP FBP MAX % FOLD mean. An outline of the steps: (§1)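 Enzyme (wt 0.8 nM, R510Q 0.8 nM, G332S 10 nM) was preincubated 30 min at RT with compound and 100 μM PEP in Tris/KCl/MgCl2 buffer, then started with 100 μM ADP, plus 30 μM FBP for G332S. Luminescence was read after 45 min at RT. AC50 came from a four-parameter fit of % fold over DMSO across 42.5 μM–2.2 nM.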
Sequence of PKR(G332S) (P30613 whole entry G332S): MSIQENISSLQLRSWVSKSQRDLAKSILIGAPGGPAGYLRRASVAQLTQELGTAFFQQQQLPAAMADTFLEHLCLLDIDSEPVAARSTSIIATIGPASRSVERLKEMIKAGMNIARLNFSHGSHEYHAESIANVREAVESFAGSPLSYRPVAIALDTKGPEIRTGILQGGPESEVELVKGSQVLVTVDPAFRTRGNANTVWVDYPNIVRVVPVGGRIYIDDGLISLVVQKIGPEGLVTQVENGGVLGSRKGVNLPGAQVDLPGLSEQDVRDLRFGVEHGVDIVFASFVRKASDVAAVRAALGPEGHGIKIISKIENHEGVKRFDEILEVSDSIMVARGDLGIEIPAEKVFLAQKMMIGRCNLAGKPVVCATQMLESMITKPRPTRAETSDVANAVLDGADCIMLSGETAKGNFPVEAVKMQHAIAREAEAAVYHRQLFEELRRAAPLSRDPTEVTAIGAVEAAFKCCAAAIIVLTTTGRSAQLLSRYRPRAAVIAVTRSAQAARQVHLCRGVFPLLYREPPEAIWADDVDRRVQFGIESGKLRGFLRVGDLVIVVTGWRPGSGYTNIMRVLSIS

A further experiment concerns the target PKR(R510Q) (Homo sapiens, UniProt P30613, R510Q). Briefly: Luminescence Assay Protocol (Kinase Glo Plus), PKR(R510Q/without FBP). The settings on record: PKRR510Q, without FBP; for activation at 1.54 µM: compound 1.54 μM, read-out: F - AC50 LUM KGP woFBP % Fold @ 1.54 μM mean; for AC50: gmean, read-out: D - AC50 LUM KGP woFBP AC50 μM gmean; for Emax: highest % fold increase at any concentration, read-out: E - AC50 LUM KGP woFBP MAX % FOLD mean. An outline of the steps: as §1
For orientation: Kinase-Glo measures the ATP left after a reaction by luminescence.

Another experiment deals with PKR(wt) (Homo sapiens, UniProt P30613). As to the kind of experiment: Luminescence Assay Protocol (Kinase Glo Plus), PKR(Wt/without FBP). The settings on record: without FBP; for activation at 1.54 µM: compound 1.54 μM, read-out: I - AC50 LUM KGP woFBP % Fold @ 1.54 μM mean; for AC50: gmean, read-out: G - AC50 LUM KGP woFBP AC50 μM gmean; for Emax: highest % fold increase at any concentration, read-out: H - AC50 LUM KGP woFBP MAX % FOLD mean. An outline of the steps:
as §1

Sequence of PKR(R510Q) (P30613 whole entry R510Q): as the sequence (P30613 whole entry G332S) above, with S332G, R510Q counted along it
Sequence of PKR(wt) (P30613 whole entry): as the sequence (P30613 whole entry G332S) above, with S332G counted along it

For orientation: AC50 means the concentration at which the activity in the assay is half-maximal. On to `O=C([C@H](CO)c1ccccc1)N1CC2=C(C1)CN(S(=O)(=O)c1ccc3c(c1)NCCO3)C2` [Example 35, (S)-1-(5-((3,4-dihydro-2H-benzo[b][1,4]oxazin-6-yl)sulfonyl)-3,4,5,6-tetrahydropyrrolo[3,4-c]pyrrol-2(1H)-yl)-3-hydroxy-2-phenylpropan-1-one], for which the activation at 1.54 µM at PKR(G332S) was in the range of 75 to 250%; on PKR(R510Q), 250 to 500%; on PKR(wt), 75 to 250%. Besides, the AC50 on PKR(G332S), at PKR(R510Q) and on PKR(wt) was at most 0.1 µM throughout. The Emax was in the range of 75 to 250% on PKR(G332S), 250 to 500% on PKR(R510Q) and 75 to 250% at PKR(wt).

For `O=C(C1CCOC1)N1CC2=C(C1)CN(S(=O)(=O)c1ccc3c(c1)NCCO3)C2` (centres unmarked) [Example 39, (5-((3,4-dihydro-2H-benzo[b][1,4]oxazin-6-yl)sulfonyl)-3,4,5,6-tetrahydropyrrolo[3,4-c]pyrrol-2(1H)-yl)(tetrahydrofuran-3-yl)methanone], the activation at 1.54 µM on PKR(G332S) fell in the range of 75 to 250%; on PKR(R510Q), 250 to 500%; at PKR(wt), 250 to 500%. The AC50 at PKR(G332S) is at most 0.1 µM; on PKR(R510Q), 0.1 to 1 µM; at PKR(wt) it was 0.1 to 1 µM. Besides, the Emax at PKR(G332S) lay within 75 to 250%; on PKR(R510Q), 250 to 500%; on PKR(wt), 250 to 500%.

In the case of `O=C(C(CO)c1ccccn1)N1CC2=C(C1)CN(S(=O)(=O)c1ccc(OC(F)F)cc1)C2` (single isomer, unassigned) [Example 41, (S or R)-1-(5-((4-(difluoromethoxy)phenyl)sulfonyl)-3,4,5,6-tetrahydropyrrolo[3,4-c]pyrrol-2(1H)-yl)-3-hydroxy-2-(pyridin-2-yl)propan-1-one], the activation at 1.54 µM on PKR(G332S) is 75 to 250%; at PKR(R510Q), 250 to 500%; on PKR(wt), 250 to 500%. The AC50 at PKR(G332S), on PKR(R510Q) and at PKR(wt) was at most 0.1 µM in each case. Further, the Emax lay in the range of 75 to 250% at PKR(G332S), 250 to 500% on PKR(R510Q) and 250 to 500% on PKR(wt).

Take `CC(C)(CO)C(=O)N1CC2=C(C1)CN(S(=O)(=O)c1ccc(OC(F)F)cc1)C2` [Example 7, 1-(5-((4-(difluoromethoxy)phenyl)sulfonyl)-3,4,5,6-tetrahydropyrrolo[3,4-c]pyrrol-2(1H)-yl)-3-hydroxy-2,2-dimethylpropan-1-one]: the AC50 was at most 0.1 µM at PKR(G332S), 0.1 to 1 µM at PKR(R510Q) and 0.1 to 1 µM on PKR(wt). The activation at 1.54 µM on PKR(wt) lay in the range of 75 to 250%. Also, the Emax at PKR(wt) was 75 to 250%.

As to `O=C(C(CO)c1ccccc1)N1CC2=C(C1)CN(S(=O)(=O)c1ccc3ncsc3c1)C2` (centres unmarked) [Example 48, 1-(5-(benzo[d]thiazol-6-ylsulfonyl)-3,4,5,6-tetrahydropyrrolo[3,4-c]pyrrol-2(1H)-yl)-3-hydroxy-2-phenylpropan-1-one], the activation at 1.54 µM is 75 to 250% at PKR(G332S), 250 to 500% on PKR(R510Q) and 250 to 500% on PKR(wt). For the same compound, the AC50 at PKR(G332S), on PKR(R510Q) and at PKR(wt) was at most 0.1 µM throughout. Besides, the Emax at PKR(G332S) is 75 to 250%; on PKR(R510Q), 250 to 500%; at PKR(wt), 250 to 500%.

As for `O=C([C@H](CO)c1ccccc1)N1CC2=C(C1)CN(S(=O)(=O)c1ccc(C(F)(F)F)nc1)C2` [Example 52, (2S)-3-hydroxy-2-phenyl-1-(5-{[6-(trifluoromethyl)pyridin-3-yl]sulfonyl}-1H,2H,3H,4H,5H,6H-pyrrolo[3,4-c]pyrrol-2-yl)propan-1-one], at PKR(G332S), the activation at 1.54 µM lay within 75 to 250%, the AC50 fell in the range of 0.1 to 1 µM and the Emax fell in the range of 75 to 250%. For the same compound, at PKR(R510Q), the activation at 1.54 µM was 75 to 250%, the AC50 is 1 to 40 µM and the Emax fell in the range of 250 to 500%. At PKR(wt), the activation at 1.54 µM lay within 75 to 250%, the AC50 was 0.1 to 1 µM and the Emax fell in the range of 75 to 250%.

With `O=C([C@H]1CCOC1)N1CC2=C(C1)CN(S(=O)(=O)c1ccc(OC(F)F)cc1)C2` [Example 16, (S)-(5-((4-(difluoromethoxy)phenyl)sulfonyl)-3,4,5,6-tetrahydropyrrolo[3,4-c]pyrrol-2(1H)-yl)(tetrahydrofuran-3-yl)methanone], at PKR(G332S), the activation at 1.54 µM is 75 to 250%, the AC50 is 0.1 to 1 µM and the Emax was in the range of 75 to 250%. Further, on PKR(R510Q), the activation at 1.54 µM is 75 to 250%, the AC50 was 1 to 40 µM and the Emax lay in the range of 250 to 500%. For the same compound, on PKR(wt), the activation at 1.54 µM was in the range of 75 to 250%, the AC50 lay in the range of 0.1 to 1 µM and the Emax was 250 to 500%.

`O=C(C1CCCOC1)N1CC2=C(C1)CN(S(=O)(=O)c1cnc3c(c1)OCCO3)C2` (single isomer, unassigned) [Example 5, (R or S)-(5-((2,3-dihydro-[1,4]dioxino[2,3-b]pyridin-7-yl)sulfonyl)-3,4,5,6-tetrahydropyrrolo[3,4-c]pyrrol-2(1H)-yl)(tetrahydro-2H-pyran-3-yl)methanone]: at PKR(G332S), the activation at 1.54 µM was 75 to 250%, the AC50 was 1 to 40 µM and the Emax lay in the range of 75 to 250%. In addition, on PKR(R510Q), the activation at 1.54 µM is 75 to 250%, the AC50 lay within 1 to 40 µM and the Emax lay in the range of 250 to 500%. At PKR(wt), the activation at 1.54 µM was 75 to 250%, the AC50 was in the range of 0.1 to 1 µM and the Emax lay in the range of 75 to 250%.

Turning to `O=C([C@@H](CO)c1ccccc1)N1CC2=C(C1)CN(S(=O)(=O)c1ccc3ncsc3c1)C2` [Example 30, (R)-1-(5-(benzo[d]thiazol-6-ylsulfonyl)-3,4,5,6-tetrahydropyrrolo[3,4-c]pyrrol-2(1H)-yl)-3-hydroxy-2-phenylpropan-1-one], the activation at 1.54 µM on PKR(G332S) lay within 75 to 250%; at PKR(R510Q), 250 to 500%; at PKR(wt), 250 to 500%. The AC50 on PKR(G332S), at PKR(R510Q) and at PKR(wt) was 0.1 to 1 µM in each case. Moreover, the Emax lay in the range of 75 to 250% on PKR(G332S), 250 to 500% at PKR(R510Q) and 250 to 500% on PKR(wt).

Turning to `CC1(C)CNc2cc(S(=O)(=O)N3CC4=C(CN(C(=O)[C@H](CO)c5ccccc5)C4)C3)ccc2O1` [Example 32, (S)-1-(5-((2,2-dimethyl-3,4-dihydro-2H-benzo[b][1,4]oxazin-6-yl)sulfonyl)-3,4,5,6-tetrahydropyrrolo[3,4-c]pyrrol-2(1H)-yl)-3-hydroxy-2-phenylpropan-1-one], at PKR(G332S), the activation at 1.54 µM lay in the range of 75 to 250%, the AC50 is above 40 µM and the Emax lay in the range of 75 to 250%. Besides, on PKR(R510Q), the activation at 1.54 µM fell in the range of 75 to 250%, the AC50 is at most 0.1 µM and the Emax fell in the range of 75 to 250%. Further, on PKR(wt), the activation at 1.54 µM lay within 75 to 250%, the half-maximal activity concentration (AC50) was at most 0.1 µM and the Emax fell in the range of 75 to 250%.

Consider `O=C([C@H](CO)c1ccccc1)N1CC2=C(C1)CN(S(=O)(=O)c1cnc3c(c1)OCCO3)C2` (single isomer, unassigned) [Example 1], for which the activation at 1.54 µM lay in the range of 75 to 250% at PKR(G332S), 250 to 500% on PKR(R510Q) and 75 to 250% at PKR(wt). Moreover, the figures for the Emax at PKR(G332S), at PKR(R510Q) and at PKR(wt) were 75 to 250%, 250 to 500% and 75 to 250%, respectively.

With `O=C(C1COc2ccccc21)N1CC2=C(C1)CN(S(=O)(=O)c1ccc3ncsc3c1)C2` (centres unmarked) [Example 43, (5-(benzo[d]thiazol-6-ylsulfonyl)-3,4,5,6-tetrahydropyrrolo[3,4-c]pyrrol-2(1H)-yl)(2,3-dihydrobenzofuran-3-yl)methanone], on PKR(G332S), the activation at 1.54 µM was 75 to 250%, the AC50 lay in the range of 0.1 to 1 µM and the Emax was 75 to 250%. In addition, at PKR(R510Q), the activation at 1.54 µM is 250 to 500%, the AC50 was in the range of 1 to 40 µM and the Emax lay in the range of 250 to 500%. Moreover, at PKR(wt), the activation at 1.54 µM fell in the range of 250 to 500%, the AC50 lay within 0.1 to 1 µM and the Emax lay within 250 to 500%.

With `O=C(C1CCCOC1)N1CC2=C(C1)CN(S(=O)(=O)c1ccc3ncsc3c1)C2` (centres unmarked) [Example 15, (5-(benzo[d]thiazol-6-ylsulfonyl)-3,4,5,6-tetrahydropyrrolo[3,4-c]pyrrol-2(1H)-yl)(tetrahydro-2H-pyran-3-yl)methanone], on PKR(G332S), the activation at 1.54 µM was in the range of 75 to 250%, the AC50 is above 40 µM and the Emax lay in the range of 75 to 250%. Further, on PKR(R510Q), the activation at 1.54 µM was 75 to 250%, the AC50 was in the range of 1 to 40 µM and the Emax lay in the range of 250 to 500%. At PKR(wt), the activation at 1.54 µM lay within 75 to 250%, the AC50 was in the range of 0.1 to 1 µM and the Emax was 75 to 250%.
